Key:
[1] = tested on: recombinant NL4-3 virus (nef section replaced with Renilla luciferase gene) in MT-2 cells; assay: HIV cell culture assay (antiviral activity, luciferase readout); format: cell-based; details: Renilla, NL43, MT-2 cells infected for 4-5 days with recombinant NL4-3 Renilla luciferase virus, serial dilutions of compound
In short: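 EC50 was derived by median-effect curve fitting of luciferase activity. The signal comes from MT-2 cells infected for 4–5 days with 293T-produced NL4-3 reporter virus, nef partly replaced by Renilla luciferase, in the presence of serially diluted compound.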

[2] = Compound cytotoxicity, XTT-based colorimetric assay; format: cell-based; details: human, uninfected MT2 cells, day 4, XTT
In short: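 Run under the antiviral-assay protocol but without virus. Viability was read on day 4 and CC50 values were derived from the readout.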

SMILES	EC50 [1] [nM]	CC50 at 4 day [2] [nM]
Cc1ccccc1-c1ccc2c(=O)n(-c3ccc(S(=O)(=O)N4CCOCC4)cc3)c([C@H](Cc3cc(F)cc(F)c3)NC(=O)Cn3ccc(C4CC4)n3)nc2c1 [Example 143, (S)-2-(3-cyclopropyl-1H-pyrazol-1-yl)-N-(2-(3,5-difluorophenyl)-1-(3-(4-(morpholinosulfonyl)phenyl)-4-oxo-7-(o-tolyl)-3,4-dihydroquinazolin-2-yl)ethyl)acetamide]	42	> 1000
O=C(Cn1ccc(C2CC2)n1)N[C@@H](Cc1cc(F)cc(F)c1)c1nc2cc(-c3ccccc3)ccc2c(=O)n1-c1ccc(S(=O)(=O)N2CCOCC2)cc1 [Example 144, (S)-2-(3-cyclopropyl-1H-pyrazol-1-yl)-N-(2-(3,5-difluorophenyl)-1-(3-(4-(morpholinosulfonyl)phenyl)-4-oxo-7-phenyl-3,4-dihydroquinazolin-2-yl)ethyl)acetamide]	16	> 500
O=C(Cn1ccc(C2CC2)n1)N[C@@H](Cc1cc(F)cc(F)c1)c1nc2cc(-c3ccccc3Cl)ccc2c(=O)n1-c1ccc(S(=O)(=O)N2CCOCC2)cc1 [Example 145, (S)-N-(1-(7-(2-chlorophenyl)-3-(4-(morpholinosulfonyl)phenyl)-4-oxo-3,4-dihydroquinazolin-2-yl)-2-(3,5-difluorophenyl)ethyl)-2-(3-cyclopropyl-1H-pyrazol-1-yl)acetamide]	16	> 500
O=C(Cn1ccc(C2CC2)n1)N[C@@H](Cc1cc(F)cc(F)c1)c1nc2cc(-c3ccccc3-c3ccccc3)ccc2c(=O)n1-c1ccc(S(=O)(=O)N2CCOCC2)cc1 [Example 146, (S)-N-(1-(7-([1,1′-biphenyl]-2-yl)-3-(4-(morpholinosulfonyl)phenyl)-4-oxo-3,4-dihydroquinazolin-2-yl)-2-(3,5-difluorophenyl)ethyl)-2-(3-cyclopropyl-1H-pyrazol-1-yl)acetamide]	69	> 500
O=C(Cn1ccc(C2CC2)n1)N[C@@H](Cc1cc(F)cc(F)c1)c1nc2cc(-c3cccc(-c4ccccc4)c3)ccc2c(=O)n1-c1ccc(S(=O)(=O)N2CCOCC2)cc1 [Example 147, (S)-N-(1-(7-([1,1′-biphenyl]-3-yl)-3-(4-(morpholinosulfonyl)phenyl)-4-oxo-3,4-dihydroquinazolin-2-yl)-2-(3,5-difluorophenyl)ethyl)-2-(3-cyclopropyl-1H-pyrazol-1-yl)acetamide]	121	> 1000
O=C(Cn1ccc(C2CC2)n1)N[C@@H](Cc1cc(F)cc(F)c1)c1nc2cc(-c3ccc(-c4ccccc4)cc3)ccc2c(=O)n1-c1ccc(S(=O)(=O)N2CCOCC2)cc1 [Example 148, (S)-N-(1-(7-([1,1′-biphenyl]-4-yl)-3-(4-(morpholinosulfonyl)phenyl)-4-oxo-3,4-dihydroquinazolin-2-yl)-2-(3,5-difluorophenyl)ethyl)-2-(3-cyclopropyl-1H-pyrazol-1-yl)acetamide]	71	> 500
O=C(Cn1nc(C(F)F)c2c1C(F)(F)[C@@H]1C[C@H]21)N[C@@H](Cc1cc(F)cc(F)c1)c1nc2cc(-c3cccc(F)c3F)ccc2c(=O)n1-c1ccc(S(=O)(=O)N2CCOCC2)cc1 [Example 149, 2-((3bS,4aR)-3-(difluoromethyl)-5,5-difluoro-3b,4,4a,5-tetrahydro-1H-cyclopropa[3,4]cyclopenta[1,2-c]pyrazol-1-yl)-N-((S)-2-(3,5-difluorophenyl)-1-(7-(2,3-difluorophenyl)-3-(4-(morpholinosulfonyl)phenyl)-4-oxo-3,4-dihydroquinazolin-2-yl)ethyl)acetamide]	8.1	> 1000
Cc1cc(F)ccc1-c1ccc2c(=O)n(-c3ccc(S(=O)(=O)N4CCOCC4)cc3)c([C@H](Cc3cc(F)cc(F)c3)NC(=O)Cn3nc(C(F)F)c4c3C(F)(F)[C@@H]3C[C@H]43)nc2c1 [Example 150, 2-((3bS,4aR)-3-(difluoromethyl)-5,5-difluoro-3b,4,4a,5-tetrahydro-1H-cyclopropa[3,4]cyclopenta[1,2-c]pyrazol-1-yl)-N-((S)-2-(3,5-difluorophenyl)-1-(7-(4-fluoro-2-methylphenyl)-3-(4-(morpholinosulfonyl)phenyl)-4-oxo-3,4-dihydroquinazolin-2-yl)ethyl)acetamide]	11	> 500
Cn1nc(NS(C)(=O)=O)c2c(Cl)ccc(-n3c([C@H](Cc4cc(F)cc(F)c4)NC(=O)Cn4nc(C(F)F)cc4C(F)F)nc4cc(-c5ccccc5F)ccc4c3=O)c21 [Example 154, (S)-2-(3,5-bis(difluoromethyl)-1H-pyrazol-1-yl)-N-(1-(3-(4-chloro-1-methyl-3-(methylsulfonamido)-1H-indazol-7-yl)-7-(2-fluorophenyl)-4-oxo-3,4-dihydroquinazolin-2-yl)-2-(3,5-difluorophenyl)ethyl)acetamide]	4.8	> 1000
CC(C)n1ccc(CC(=O)N[C@@H](Cc2cc(F)cc(F)c2)c2nc3cc(-c4ccccc4F)ccc3c(=O)n2-c2ccc(Cl)c3c(NS(C)(=O)=O)nn(C)c23)n1 [Example 155, (S)-N-(1-(3-(4-chloro-1-methyl-3-(methylsulfonamido)-1H-indazol-7-yl)-7-(2-fluorophenyl)-4-oxo-3,4-dihydroquinazolin-2-yl)-2-(3,5-difluorophenyl)ethyl)-2-(1-isopropyl-1H-pyrazol-3-yl)acetamide]	0.76	> 1000
COc1ccc(-c2ccc3c(=O)n(-c4ccc(Cl)c5c(NS(C)(=O)=O)nn(C)c45)c([C@H](Cc4cc(F)cc(F)c4)NC(=O)Cn4nc(C(F)F)c5c4C(F)(F)[C@@H]4C[C@H]54)nc3c2)cc1 [Example 156, N-((S)-1-(3-(4-chloro-1-methyl-3-(methylsulfonamido)-1H-indazol-7-yl)-7-(4-methoxyphenyl)-4-oxo-3,4-dihydroquinazolin-2-yl)-2-(3,5-difluorophenyl)ethyl)-2-((3bS,4aR)-3-(difluoromethyl)-5,5-difluoro-3b,4,4a,5-tetrahydro-1H-cyclopropa[3,4]cyclopenta[1,2-c]pyrazol-1-yl)acetamide]	0.79	> 500
Cc1ncc(-c2ccc3c(=O)n(-c4ccc(Cl)c5c(NS(=O)(=O)C6CC6)nn(CC(F)F)c45)c([C@H](Cc4cc(F)cc(F)c4)NC(=O)Cn4nc(C(F)F)c5c4C(F)(F)[C@@H]4C[C@H]54)nc3c2)cn1 [Example 157, N-((S)-1-(3-(4-chloro-3-(cyclopropanesulfonamido)-1-(2,2-difluoroethyl)-1H-indazol-7-yl)-7-(2-methylpyrimidin-5-yl)-4-oxo-3,4-dihydroquinazolin-2-yl)-2-(3,5-difluorophenyl)ethyl)-2-((3bS,4aR)-3-(difluoromethyl)-5,5-difluoro-3b,4,4a,5-tetrahydro-1H-cyclopropa[3,4]cyclopenta[1,2-c]pyrazol-1-yl)acetamide]	0.06	> 500
Cc1cccc(-c2ccc3c(=O)n(-c4ccc(Cl)c5c(NS(=O)(=O)C6CC6)nn(CC(F)F)c45)c([C@H](Cc4cc(F)cc(F)c4)NC(=O)Cn4nc(C(F)F)c5c4C(F)(F)[C@@H]4C[C@H]54)nc3c2)n1 [Example 158, N-((S)-1-(3-(4-chloro-3-(cyclopropanesulfonamido)-1-(2,2-difluoroethyl)-1H-indazol-7-yl)-7-(6-methylpyridin-2-yl)-4-oxo-3,4-dihydroquinazolin-2-yl)-2-(3,5-difluorophenyl)ethyl)-2-((3bS,4aR)-3-(difluoromethyl)-5,5-difluoro-3b,4,4a,5-tetrahydro-1H-cyclopropa[3,4]cyclopenta[1,2-c]pyrazol-1-yl)acetamide]	0.14	> 500
Cc1ccnc(-c2ccc3c(=O)n(-c4ccc(Cl)c5c(NS(=O)(=O)C6CC6)nn(CC(F)F)c45)c([C@H](Cc4cc(F)cc(F)c4)NC(=O)Cn4nc(C(F)F)c5c4C(F)(F)[C@@H]4C[C@H]54)nc3c2)n1 [Example 159, N-((S)-1-(3-(4-chloro-3-(cyclopropanesulfonamido)-1-(2,2-difluoroethyl)-1H-indazol-7-yl)-7-(4-methylpyrimidin-2-yl)-4-oxo-3,4-dihydroquinazolin-2-yl)-2-(3,5-difluorophenyl)ethyl)-2-((3bS,4aR)-3-(difluoromethyl)-5,5-difluoro-3b,4,4a,5-tetrahydro-1H-cyclopropa[3,4]cyclopenta[1,2-c]pyrazol-1-yl)acetamide]	0.1	> 500
CS(=O)(=O)c1ccccc1-c1ccc2c(=O)n(-c3ccc(Cl)c4c(NS(=O)(=O)C5CC5)nn(CC(F)F)c34)c([C@H](Cc3cc(F)cc(F)c3)NC(=O)Cn3nc(C(F)F)c4c3C(F)(F)[C@@H]3C[C@H]43)nc2c1 [Example 160, N-((S)-1-(3-(4-chloro-3-(cyclopropanesulfonamido)-1-(2,2-difluoroethyl)-1H-indazol-7-yl)-7-(2-(methylsulfonyl)phenyl)-4-oxo-3,4-dihydroquinazolin-2-yl)-2-(3,5-difluorophenyl)ethyl)-2-((3bS,4aR)-3-(difluoromethyl)-5,5-difluoro-3b,4,4a,5-tetrahydro-1H-cyclopropa[3,4]cyclopenta[1,2-c]pyrazol-1-yl)acetamide]	0.082	> 500
Cc1cccc(-c2ccc3c(=O)n(-c4ccc(Cl)c5c(NS(C)(=O)=O)nn(CC(F)(F)F)c45)c([C@H](Cc4cc(F)cc(F)c4)NC(=O)Cn4nc(C(F)F)c5c4C(F)(F)[C@@H]4C[C@H]54)nc3c2)n1 [Example 161, N-((S)-1-(3-(4-chloro-3-(methylsulfonamido)-1-(2,2,2-trifluoroethyl)-1H-indazol-7-yl)-7-(6-methylpyridin-2-yl)-4-oxo-3,4-dihydroquinazolin-2-yl)-2-(3,5-difluorophenyl)ethyl)-2-((3bS,4aR)-3-(difluoromethyl)-5,5-difluoro-3b,4,4a,5-tetrahydro-1H-cyclopropa[3,4]cyclopenta[1,2-c]pyrazol-1-yl)acetamide]	0.12	> 500

Source: patent publication US11505543B2, “4-oxo-3,4-dihydroquinazoline compounds as inhibitors of human immunodeficiency virus replication” (VIIV HEALTHCARE UK (NO.5) LIMITED, priority 2018, dated 2022)
